Assays:
goosegrass [1] = experiment: Test A postemergence; type: in vivo, Eleusine indica; details: postemergence, 10 days, visual injury, 0 to 100 scale (0 no effect, 100 complete control)
Summary of the method: (§1)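 Weeds and crops in loam–sand blend were sprayed preemergence onto soil or postemergence at 2–10 cm (one- to two-leaf stage). Test chemicals were in a non-phytotoxic solvent with surfactant. After 10 days in the greenhouse, injury was rated visually against untreated controls on a 0 (no effect) to 100 (complete control) scale.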

ragweed [2] = experiment: Test A postemergence; type: in vivo, Ambrosia artemisiifolia; details: 500 g ai/ha, postemergence, 10 days, visual injury, 0 to 100 scale (0 no effect, 100 complete control)
Summary of the method: as §1

soybean [3] = experiment: Test A postemergence; type: in vivo, Glycine max; details: 500 g ai/ha, postemergence, 10 days, visual injury, 0 to 100 scale (0 no effect, 100 complete control)
Description: (§2) Seeds of plant species selected from barnyardgrass (Echinochloa crusgalli), blackgrass (Alopecurus myosuroides), corn (Zea mays), foxtail, giant (giant foxtail, Setaria faberi), goosegrass (Eleusine indica), kochia (Bassia scoparia), oat, wild (wild oat, Avena fatua), pigweed, palmer (palmer amaranth, palmer pigweed, Amaranthus palmeri), Pigweed, Redroot (redroot pigweed, Amaranthus retroflexus), ragweed (common ragweed, Ambrosia artemisiifolia), ryegrass, Italian (italian ryegrass, Lolium multiflorum), soybean (Glycine max), and wheat (Triticum aestivum) were planted into a blend of loam soil and sand and treated preemergence with a directed soil spray using test chemicals formulated in a non-phytotoxic solvent mixture which included a surfactant. At the same time, plants selected from these crops and weed species and also galium (catchweed bedstraw, Galium aparine) and horseweed (Erigeron canadensis) were planted in pots containing the same blend of loam soil and sand and treated with postemergence applications of test chemicals formulated in the same manner. Plants ranged in height from 2 to 10 cm and were in the one- to two-leaf stage for the postemergence treatment. Treated plants and untreated controls were maintained in a greenhouse for 10 days, after which time all treated plants were compared to untreated controls and visually evaluated for injury. Plant response ratings, summarized in Table A, are based on a 0 to 100 scale where 0 is no effect and 100 is complete control. A dash (-) response means no test result.

oat, wild = experiment: Test A postemergence; type: in vivo, Avena fatua; details: 500 g ai/ha, postemergence, 10 days, visual injury, 0 to 100 scale (0 no effect, 100 complete control)
Description: as §2

ragweed [4] = experiment: Test A preemergence; type: in vivo, Ambrosia artemisiifolia
Summary of the method: as §1

rice = experiment: Test B flooded paddy test; type: in vivo, Oryza sativa; details: 250 g ai/ha, Flood, 13 days, 0 to 100 scale (0 no effect, 100 complete control)
Experimental: (§3) Plant species in the flooded paddy test selected from barnyardgrass (Echinochloa crus-galli), ducksalad (Heteranthera limosa), rice (Oryza sativa), and sedge, umbrella (small-flower umbrella sedge, Cyperus difformis) were grown to the 2-leaf stage for testing. At time of treatment, test pots were flooded to 3 cm above the soil surface, treated by application of test compounds directly to the paddy water, and then maintained at that water depth for the duration of the test. Treated plants and controls were maintained in a greenhouse for 13 days, after which time all species were compared to controls and visually evaluated. Plant response ratings, summarized in Table B, are based on a scale of 0 to 100 where 0 is no effect and 100 is complete control. A dash (-) response means no test result.

barnyardgrass = experiment: Test B flooded paddy test; type: in vivo, Echinochloa crus-galli; details: 250 g ai/ha, Flood, 13 days, 0 to 100 scale (0 no effect, 100 complete control)
Experimental: as §3

pigweed, palmer [5] = experiment: Test A postemergence; type: in vivo, Amaranthus palmeri; details: 500 g ai/ha, postemergence, 10 days, visual injury, 0 to 100 scale (0 no effect, 100 complete control)
Summary of the method: as §1

blackgrass = experiment: Test A postemergence; type: in vivo, Alopecurus myosuroides
Summary of the method: as §1

soybean [6] = experiment: Test A preemergence; type: in vivo, Glycine max
Description: as §2

ryegrass, Italian [7] = experiment: Test A preemergence; type: in vivo, Lolium multiflorum
Summary of the method: as §1

pigweed, palmer [8] = experiment: Test A preemergence; type: in vivo, Amaranthus palmeri
Summary of the method: as §1

foxtail, giant [9] = experiment: Test A postemergence; type: in vivo, Setaria faberi; details: postemergence, 10 days, visual injury, 0 to 100 scale (0 no effect, 100 complete control)
Summary of the method: as §1

corn [10] = experiment: Test A postemergence; type: in vivo, Zea mays; details: postemergence, 10 days, visual injury, 0 to 100 scale (0 no effect, 100 complete control)
Description: as §2

sedge, umbrella = experiment: Test B flooded paddy test; type: in vivo, Cyperus difformis; details: 250 g ai/ha, Flood, 13 days, 0 to 100 scale (0 no effect, 100 complete control)
Experimental: as §3

ducksalad = experiment: Test B flooded paddy test; type: in vivo, Heteranthera limosa; details: 250 g ai/ha, Flood, 13 days, 0 to 100 scale (0 no effect, 100 complete control)
Experimental: as §3

galium = experiment: Test A postemergence; type: in vivo, Galium aparine; details: postemergence, 10 days, visual injury, 0 to 100 scale (0 no effect, 100 complete control)
Summary of the method: as §1

kochia [11] = experiment: Test A postemergence; type: in vivo, Bassia scoparia; details: postemergence, 10 days, visual injury, 0 to 100 scale (0 no effect, 100 complete control)
Summary of the method: as §1

ryegrass, Italian [12] = experiment: Test A postemergence; type: in vivo, Lolium multiflorum; details: 500 g ai/ha, postemergence, 10 days, visual injury, 0 to 100 scale (0 no effect, 100 complete control)
Summary of the method: as §1

kochia [13] = experiment: Test A preemergence; type: in vivo, Bassia scoparia
Summary of the method: as §1

goosegrass [14] = experiment: Test A preemergence; type: in vivo, Eleusine indica
Summary of the method: as §1

wheat [15] = experiment: Test A preemergence; type: in vivo, Triticum aestivum
Description: as §2

foxtail, giant [16] = experiment: Test A preemergence; type: in vivo, Setaria faberi
Summary of the method: as §1

horseweed = experiment: Test A postemergence; type: in vivo, Erigeron canadensis; details: postemergence, 10 days, visual injury, 0 to 100 scale (0 no effect, 100 complete control)
Summary of the method: as §1

wheat [17] = experiment: Test A postemergence; type: in vivo, Triticum aestivum; details: 500 g ai/ha, postemergence, 10 days, visual injury, 0 to 100 scale (0 no effect, 100 complete control)
Description: as §2

corn [18] = experiment: Test A preemergence; type: in vivo, Zea mays
Description: as §2

[19] = 125 g ai/ha, visual injury after 10 days, 0 to 100 scale, 0 is no effect, 100 is complete control
[20] = 500 g ai/ha, 0 to 100 scale (0 no effect, 100 complete control), 10 days
[21] = 125 g ai/ha, postemergence, 10 days, visual injury, 0 to 100 scale (0 no effect, 100 complete control)
[22] = 500 g ai/ha, Postemergence, 0 to 100 scale

SMILES: CCc1ncn(-c2ccc(C)c(C(=O)N3C[C@H](C)Oc4c(Cl)cccc43)c2)n1 [Compound 75]
- Plant response rating, Goosegrass (goosegrass [1]; 125 g ai/ha): 70
- Plant response rating, Goosegrass (goosegrass [1]; 500 g ai/ha): 90
- Plant response rating, Ragweed (ragweed [2]): 80
- Plant response rating, Soybean (soybean [3]): 100
- Plant response rating, Oat, Wild (oat, wild): 90
- Plant response rating, Ragweed (ragweed [4]; [19]): 0
- Plant response rating, Ragweed (ragweed [4]; [20]): 100
- Plant response rating, Rice (rice): 10
- Plant response rating, Barnyardgrass (barnyardgrass): 50
- Plant response rating, Pigweed, Palmer (pigweed, palmer [5]): 100
- Plant response rating, Blackgrass (blackgrass; [21]): 90
- Plant response rating, Blackgrass (blackgrass; [22]): 90
- Plant response rating, Soybean (soybean [6]; [19]): 80
- Plant response rating, Soybean (soybean [6]; [20]): 100
- Plant response rating, Ryegrass, Italian (ryegrass, Italian [7]; [19]): 100
- Plant response rating, Ryegrass, Italian (ryegrass, Italian [7]; [20]): 100
- Plant response rating, Pigweed, Palmer (pigweed, palmer [8]; [19]): 100
- Plant response rating, Pigweed, Palmer (pigweed, palmer [8]; [20]): 100
- Plant response rating, Foxtail, Giant (foxtail, giant [9]; 125 g ai/ha): 90
- Plant response rating, Foxtail, Giant (foxtail, giant [9]; 500 g ai/ha): 100
- Plant response rating, Corn (corn [10]; 125 g ai/ha): 60
- Plant response rating, Corn (corn [10]; 500 g ai/ha): 90
- Plant response rating, Sedge, Umbrella (sedge, umbrella): 98
- Plant response rating, Ducksalad (ducksalad): 70
- Plant response rating, Galium (galium; 125 g ai/ha): 100
- Plant response rating, Galium (galium; 500 g ai/ha): 100
- Plant response rating, Kochia (kochia [11]; 125 g ai/ha): 90
- Plant response rating, Kochia (kochia [11]; 500 g ai/ha): 90
- Plant response rating, Ryegrass, Italian (ryegrass, Italian [12]): 100
- Plant response rating, Kochia (kochia [13]; [19]): 80
- Plant response rating, Kochia (kochia [13]; [20]): 90
- Plant response rating, Goosegrass (goosegrass [14]; [19]): 100
- Plant response rating, Goosegrass (goosegrass [14]; [20]): 100
- Plant response rating, Wheat (wheat [15]; [19]): 30
- Plant response rating, Wheat (wheat [15]; [20]): 80
- Plant response rating, Foxtail, Giant (foxtail, giant [16]; [19]): 100
- Plant response rating, Foxtail, Giant (foxtail, giant [16]; [20]): 100
- Plant response rating, Horseweed (horseweed; 125 g ai/ha): 50
- Plant response rating, Horseweed (horseweed; 500 g ai/ha): 70
- Plant response rating, Wheat (wheat [17]): 60
- Plant response rating, Corn (corn [18]; [19]): 40
- Plant response rating, Corn (corn [18]; [20]): 50

SMILES: Cc1cccc2c1O[C@@H](C)CN2C(=O)c1cccc(-n2cnc(C3CCC3)n2)c1 [Compound 77]
- Plant response rating, Goosegrass (goosegrass [1]; 125 g ai/ha): 20
- Plant response rating, Goosegrass (goosegrass [1]; 500 g ai/ha): 60
- Plant response rating, Ragweed (ragweed [2]): 0
- Plant response rating, Soybean (soybean [3]): 100
- Plant response rating, Oat, Wild (oat, wild): 10
- Plant response rating, Ragweed (ragweed [4]; [19]): 0
- Plant response rating, Ragweed (ragweed [4]; [20]): 0
- Plant response rating, Rice (rice): 0
- Plant response rating, Barnyardgrass (barnyardgrass): 0
- Plant response rating, Pigweed, Palmer (pigweed, palmer [5]): 70
- Plant response rating, Blackgrass (blackgrass; [21]): 50
- Plant response rating, Blackgrass (blackgrass; [22]): 70
- Plant response rating, Soybean (soybean [6]; [19]): 0
- Plant response rating, Soybean (soybean [6]; [20]): 50
- Plant response rating, Ryegrass, Italian (ryegrass, Italian [7]; [19]): 80
- Plant response rating, Ryegrass, Italian (ryegrass, Italian [7]; [20]): 100
- Plant response rating, Pigweed, Palmer (pigweed, palmer [8]; [19]): 90
- Plant response rating, Pigweed, Palmer (pigweed, palmer [8]; [20]): 100
- Plant response rating, Foxtail, Giant (foxtail, giant [9]; 125 g ai/ha): 70
- Plant response rating, Foxtail, Giant (foxtail, giant [9]; 500 g ai/ha): 90
- Plant response rating, Corn (corn [10]; 125 g ai/ha): 40
- Plant response rating, Corn (corn [10]; 500 g ai/ha): 80
- Plant response rating, Sedge, Umbrella (sedge, umbrella): 85
- Plant response rating, Ducksalad (ducksalad): 20
- Plant response rating, Galium (galium; 125 g ai/ha): 100
- Plant response rating, Galium (galium; 500 g ai/ha): 100
- Plant response rating, Kochia (kochia [11]; 125 g ai/ha): 90
- Plant response rating, Kochia (kochia [11]; 500 g ai/ha): 90
- Plant response rating, Ryegrass, Italian (ryegrass, Italian [12]): 60
- Plant response rating, Kochia (kochia [13]; [19]): 90
- Plant response rating, Kochia (kochia [13]; [20]): 90
- Plant response rating, Goosegrass (goosegrass [14]; [19]): 100
- Plant response rating, Goosegrass (goosegrass [14]; [20]): 100
- Plant response rating, Wheat (wheat [15]; [19]): 20
- Plant response rating, Wheat (wheat [15]; [20]): 50
- Plant response rating, Foxtail, Giant (foxtail, giant [16]; [19]): 90
- Plant response rating, Foxtail, Giant (foxtail, giant [16]; [20]): 100
- Plant response rating, Horseweed (horseweed; 125 g ai/ha): 50
- Plant response rating, Horseweed (horseweed; 500 g ai/ha): 50
- Plant response rating, Wheat (wheat [17]): 30
- Plant response rating, Corn (corn [18]; [19]): 0
- Plant response rating, Corn (corn [18]; [20]): 30

Source: patent US20260262643A1, “HERBICIDAL BENZOXAZINES” (FMC CORPORATION, priority 2022, published 2026)
